Like-named read-outs stand apart in the source and are kept apart here.
Key:
[1] = in vivo; format: in vivo; details: mouse; for half-life / Kp / AUC / CL/F / Cmax: both sexes, ip; for Kp: C57/B6, brain/serum, read-out: Brain to sera AUC ratio
Method: In pharmacokinetic studies, mice were not randomized to groups but instead assigned to treatment and time points such that there was no gender of weight bias. Studies were initiated in the morning and following treatment mice were euthanized by CO2 asphyxiation and cervical dislocation at predetermined time points (0.25, 0.5, 1, 2, 4, 8, 12, and 24 h) (n = 3–4 animals per time point). Blood (via cardiac puncture), brain, liver, and kidney were rapidly collected, tissues were snap‐frozen in liquid nitrogen, and stored at −80°C prior to further analysis. Sera (20–100 μL) was obtained by low‐speed centrifugation at 2000 × g for 10 min at 6°C. Tissues were suspended in phosphate‐buffered saline (PBS, 1:5, w/v) and homogenized via mechanical homogenization before preparation for LC‐MS/MS analysis.
Samples (3 μL) were injected onto a Kinetex PFP (50 × 2.1 mm, 1.7 μm particle size) UPLC column and eluted with a binary gradient consisting of water with 0.1% formic acid (mobile phase A) and methanol with 0.1% formic acid (mobile phase B). Initially, 5% mobile phase B was held for 0.4 min at a flow rate of 0.3 mL/min, then increased linearly to 85% over 2.6 min. This composition was held constant for 0.5 min then returned to initial conditions within 6 sec and equilibrated for an additional 1.8 min. Eluent was directed to waste for the initial 0.4 min then to an ABI Sciex 6500 Qtrap tandem mass spectrometer. […] Where necessary, samples were diluted in blank matrices for analysis. Methods were developed using the criteria presented in the FDA bioanalytical guidance document (www.fda.gov, 2013).
Pharmacokinetic outcomes were obtained via standard noncompartmental methods using Kinetica (version 5.1, Thermo Fisher Scientific, Waltham, MA). The maximum concentration (C max) was obtained directly from the concentration–time profiles. Area under the concentration–time curve (AUC) from time zero to the last collected time point was determined using the trapezoidal method with linear up/log down interpolation. For sera and urine, data above the limit of detection but below the LLOQ were computed as LLOQ/2 (7 nmol/L, 7.5 μg/mL, respectively) to allow for the recovery of the terminal half‐life as reported previously (Beal 2001). To obtain estimates of variability around the mean of AUC and C max, the method of Bailer–Satterwaithe was employed due to the destructive sampling approach (Nedelman et al. 1995). Furthermore, as a result of the destructive sampling approach outcomes for half‐life, apparent volume of distribution and apparent clearance could not be reported with a term for uncertainty.

[2] = tested on: pigeon; set-up: method as in Koek et al., 2006; details: pigeon, 54, 178, 320, 560 mg/kg, route ns; ref Koek et al., 2006; cited from earlier work
[3] = tested on: gamma‐butyrolactone‐treated mice; test: GBL‐mediated response protection by NCS‐382 in the absence and presence of diclofenac; format: in vivo; details: mouse
Method: Wild‐type C57/B6 mice (mixed gender, n = 7) were bred in‐house, weaned at day of life (DOL) 21, and randomized to a treatment sequence (Fig. 2). […] Thirty minutes later, mice were given an i.p. injection of GBL (100 mg/kg diluted in PBS) and were placed into a clean round arena (~10 inches in diameter) and were allowed access to food and water. Mice were recorded on a camera operated by Serena acquisition software (recorded for 10 min). At 5 and 10 min following GBL, righting reflex was assessed. These procedures were repeated daily with ~24 h in between sessions. Data file names were coded such that treatments were blinded at the time of video data analysis. During video data analysis, the time of which noticeable loss of motor function or coordination (e.g., “loss of motor function”) was observed, and the time taken for the subject to enter a dissociative state and fall into an unsupported prone position (e.g., “time to loss of motion”) was monitored. Righting reflex was evaluated by placing the mouse in a supine position and the time to return to all four paws was recorded based on the timestamp of the playback video. Data for each treatment group were expressed as the mean and standard deviation, and statistical significance was evaluated using one‐way ANOVA and Tukey post hoc t test (P < 0.05).
Wild‐type C57/B6 mice (mixed gender, n = 7) were bred in‐house, weaned at day of life (DOL) 21, and randomized to a treatment sequence. […] Thirty minutes later, mice were given an i.p. injection of GBL (100 mg/kg in PBS) and were placed into a clean round arena (~10 inches in diameter) and were allowed access to food and water. Mice were recorded on a camera operated by Sirena acquisition software (recorded for 10 min). At 5 and 10 min following GBL, righting reflex was assessed. These procedures were repeated daily with ~24 h in between sessions. Data files names were coded such that video analysis was blinded at the time of data recording.

[4] = tested on: rat; set-up: method as in Baker et al., 2008; details: rat, 25, 50, 100 mg/kg i.g.; ref Baker et al., 2008; cited from earlier work
[5] = Excretion of NCS‐382 in urine and feces (metabolic cages); format: in vivo; details: mouse, pooled urine of 3 mice
Method: To ensure sufficient volumes of urine could be collected in each of the 2 h time intervals (baseline, 0–2, 2–4, 4–6, 6–8 h), three mice were dosed simultaneously and their urine and feces pooled for analysis. The total dose in μg administered to the three animals was therefore used to calculate the percent of the dose excreted in the urine pooled from all three mice. Animals were allowed ad libitum access to food and water of which the intake of each was monitored.
Samples (3 μL) were injected onto a Kinetex PFP (50 × 2.1 mm, 1.7 μm particle size) UPLC column and eluted with a binary gradient consisting of water with 0.1% formic acid (mobile phase A) and methanol with 0.1% formic acid (mobile phase B). […] Eluent was directed to waste for the initial 0.4 min then to an ABI Sciex 6500 Qtrap tandem mass spectrometer. […] Where necessary, samples were diluted in blank matrices for analysis.
Pharmacokinetic outcomes were obtained via standard noncompartmental methods using Kinetica (version 5.1, Thermo Fisher Scientific, Waltham, MA). The maximum concentration (C max) was obtained directly from the concentration–time profiles. Area under the concentration–time curve (AUC) from time zero to the last collected time point was determined using the trapezoidal method with linear up/log down interpolation.

[6] = tested on: rat; set-up: method as in Nava et al., 2001; details: dose n.s., i.p., ref Nava et al., 2001; cited from earlier work
[7] = tested on: rat; set-up: method as in Colombo et al., 1995; details: rat, 12.5, 25, 50 mg/kg i.p.; ref Colombo et al., 1995; cited from earlier work
[8] = tested on: rat; set-up: method as in Lamb et al., 2003; details: rat, 3.2, 32 mg/kg i.p; ref Lamb et al., 2003; cited from earlier work
[9] = tested on: rat; set-up: method as in Pedraza et al., 2009; details: 10 mg/kg i.p., ref Pedraza et al., 2009; cited from earlier work
[10] = tested on: rat; set-up: method as in Hicks et al., 2004; details: 50 mg/kg i.v., ref Hicks et al., 2004; cited from earlier work
[11] = 100 mg/kg i.p., tissue density assumed equal to water
[12] = 300 mg/kg i.p., tissue density assumed equal to water
[13] = 500 mg/kg i.p., tissue density assumed equal to water

## O=C(O)/C=C1\CCCc2ccccc2C1O (centres unmarked) [NCS‐382, 6,7,8,9‐tetrahydro‐5‐hydroxy‐5H‐benzo‐cyclohept‐6‐ylideneacetic acid]
[1]; C57/B6, brain, 100 mg/kg i.p., read-out: Brain t 1/2 (converted)
  half-life: 58 min
[1]; C57/B6, brain, 300 mg/kg i.p., read-out: Brain t 1/2 (converted)
  half-life: 53 min
[1]; C57/B6, brain, 500 mg/kg i.p., read-out: Brain t 1/2 (converted)
  half-life: 45.7 min
[1]; 100 mg/kg i.p.
  Kp: 1.2
  Serum V/F: 2.62 L/kg
  time after administration up to which detectable in sera: up to 4 h
  time after administration up to which quantifiable in brain: up to 8 h
  time after administration up to which quantifiable in kidney: up to 4 h
  time after administration up to which quantifiable in liver: up to 2 h
  time after administration up to which quantifiable in sera: up to 2 h
[1]; 300 mg/kg i.p.
  Kp: 0.72
  Serum V/F: 2.93 L/kg
[1]; 500 mg/kg i.p.
  Kp: 1.8
  Serum V/F: 4.25 L/kg
[1]; C57/B6, kidney, 100 mg/kg i.p., read-out: Kidney t 1/2 (converted)
  half-life: 18.5 min
[1]; C57/B6, serum, 100 mg/kg i.p.
  AUC: 119 ± 38 µM·h
  CL/F: 63.3 mL/min/kg
  Cmax: 241 ± 106 µM
[1]; C57/B6, serum, 100 mg/kg i.p., read-out: Serum t 1/2 (converted)
  half-life: 14.6 min
[1]; C57/B6, serum, 300 mg/kg i.p.
  AUC: 436 ± 42 µM·h
  CL/F: 52.5 mL/min/kg
  Cmax: 374 ± 49 µM
[1]; C57/B6, serum, 300 mg/kg i.p., read-out: Serum t 1/2 (converted)
  half-life: 28.1 min
[1]; C57/B6, serum, 500 mg/kg i.p.
  AUC: 717 ± 83 µM·h
  CL/F: 53.2 mL/min/kg
  Cmax: 451 ± 49 µM
[1]; C57/B6, serum, 500 mg/kg i.p., read-out: Serum t 1/2 (converted)
  half-life: 41 min
[1]; [11]
  Brain AUC: 139 ± 60 µM·h
  Brain Cmax: 60 ± 9.5 µM
  Kidney AUC: 24.5 ± 5.3 µM·h
  Kidney Cmax: 23.6 ± 3.0 µM
  Liver AUC: 1150 ± 595 µM·h
  Liver Cmax: 1695 ± 2030 µM
[1]; [12]
  Brain AUC: 313 ± 33 µM·h
  Brain Cmax: 141 ± 45 µM
[1]; [13]
  Brain AUC: 1280 ± 175 µM·h
  Brain Cmax: 530 ± 70 µM
[2]
  effects of diazepam: GHB, its precursors 1,4-BD and GBL, and NCS-382 did not attenuate the effects of diazepam.
[3]; NCS‐382 300 mg/kg with diclofenac 25 mg/kg i.p. 30 min before GBL 100 mg/kg i.p.
  time to loss of motor function compared to vehicle control: significantly improved
[3]; given alone i.p. (NCS‐382 300 mg/kg or diclofenac 25 mg/kg) 30 min before GBL 100 mg/kg i.p.
  time to loss of motor function compared to vehicle control: trended toward increasing
[4]
  GHB's (300 mg/kg) discriminative stimulus effects: GHB's (300 mg/kg) discriminative stimulus effects were obliterated by the GABAB receptor antagonist, CGP-35348 and slightly attenuated by NCS 382.
[5]; 100 mg/kg
  total dose administered recovered unchanged in the urine over 8 h: 0.1%
[5]; 300 mg/kg
  total dose administered recovered unchanged in the urine over 8 h: 1.1%
[5]; 500 mg/kg
  total dose administered recovered unchanged in the urine over 8 h: 3.3%
[6]
  GHB-induced decrease of hippocampal acetylcholine release: GHB-induced ↓ of hippocampal acetylcholine release is mediated by GABAB receptors, based on ineffective blocking by NCS-382.
[7]
  discriminative stimulus effects of GHB: Blockade of the discriminative stimulus effects of gamma-hydroxybutyric acid (GHB) by the GHB receptor antagonist NCS-382.
[8]
  motor effects of GHB: NCS-382 did not antagonize the motor effects of GHB, consistent with the belief that many of the behavioral actions of exogenously administered GHB result from GHB's actions at sites other than the GHB receptor.
[9]
  neurological damage and working-memory impairment induced by low-dose GHB: NCS-382 prevents both neurological damage and working- memory impairment induced by low-dose GHB.
[10]
  increase in heart rate induced by GHB: reversed the ↑ in heart rate
  pressor response induced by GHB: not the pressor response
